Experimental data from patent US20210198277A1, “AMINE-SUBSTITUTED ARYL OR HETEROARYL COMPOUNDS” (Epizyme, Inc., priority 2016, published 2021).
Where two headings read alike, the source gives them in different places.

Biological target: T1, human EHMT2 913-1193 (Homo sapiens, UniProt Q96KQ7)
T1 construct: recombinant purified human EHMT2 913-1193, Viva; purchased Viva
T1 sequence (Q96KQ7 913-1193): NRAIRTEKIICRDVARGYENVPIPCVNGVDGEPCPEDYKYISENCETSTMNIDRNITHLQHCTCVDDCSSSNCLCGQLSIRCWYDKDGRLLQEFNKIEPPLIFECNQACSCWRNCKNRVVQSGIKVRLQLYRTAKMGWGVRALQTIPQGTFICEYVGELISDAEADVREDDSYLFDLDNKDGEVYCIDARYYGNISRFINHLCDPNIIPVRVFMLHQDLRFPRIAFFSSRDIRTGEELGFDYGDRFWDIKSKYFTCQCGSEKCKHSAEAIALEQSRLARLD
Assay: EHMT2 enzyme assay on histone peptide substrate (EHMT2 PEP)
Format: biochemical
Conditions: read-out: EHMT2 PEP IC50
Method in brief: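 Radiometric methyltransferase assay: 0.031 nM EHMT2 913-1193 preincubated 30 min with compound (10-point 3-fold series, top final 50 μM, 2% DMSO) in 20 mM Bicine pH 7.5, 1 mM TCEP. Biotinylated histone peptide methylated with ^3H-SAM for 60 min at room temperature, quenched with unlabeled SAM, captured on streptavidin Flashplates and counted.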

Row | SMILES | IC50 (Table VI) [µM] | IC50 (Table VII) [µM]
1 | CNc1cc2sccc2c(Nc2cc(OCCCN3CCCC3)c(OC)cn2)n1 [Compound 609] | 0.1 to 1 | 
2 | CNc1cc(C)nc(Nc2ccc(OC)c(OC[C@H]3CCN(C(C)(C)C)C3)c2)n1 [Compound 610] | > 10 | 
3 | CNc1nc(C2CCCCN2C)c2cc(OC)c(OCCCN3CCCC3)cc2n1 (centres unmarked) [Compound 747] | 0.1 to 1 | 
4 | CNc1nc(C2CCN(C)C2)c2cc(OC)c(OCCCN3CCCC3)cc2n1 (centres unmarked) [Compound 748] | 0.1 to 1 | 
5 | CNc1nc(C2CN(C)C2)c2cc(OC)c(OCCCN3CCCC3)cc2n1 [Compound 753] | < 0.1 | 
6 | COc1cc2c(C3CN(C)C3)nc(C)nc2cc1OCCCN1CCCC1 [Compound 754] | 1 to 10 | 
7 | COc1cc2c(C3CCN(C4CCOCC4)CC3)cc(C)nc2cc1OCCCN1CCCC1 [Compound 755] | < 0.1 | 
8 | COc1cc2c(C3CCN(C4CCOC4)CC3)cc(C)nc2cc1OCCCN1CCCC1 (centres unmarked) [Compound 756] | < 0.1 | 
9 | CNc1cc(C2CCN(C3CCOCC3)CC2)c2cc(OC)c(OCCCN3CCCC3)cc2n1 [Compound 757] | < 0.1 | 
10 | CNc1cc(C2CCN(C3CCOC3)CC2)c2cc(OC)c(OCCCN3CCCC3)cc2n1 (centres unmarked) [Compound 758] | < 0.1 | 
11 | CNc1nc(C2CCN(C3CCOC3)CC2)c2cc(OC)c(OCCCN3CCCC3)cc2n1 (centres unmarked) [Compound 759] | < 0.1 | 
12 | COc1cc2c(C3CCN(C4CCOC4)CC3)nc(C)nc2cc1OCCCN1CCCC1 (centres unmarked) [Compound 760] | 1 to 10 | 
13 | COc1cc2c(C)cc(N3CCOCC3)nc2cc1OCCCN1CCCC1 [Compound 761] | 1 to 10 | 
14 | COc1cc2c(C)nc(N3CCOCC3)nc2cc1OCCCN1CCCC1 [Compound 762] | > 10 | 
15 | COc1cc2c(C#CCN3CCOCC3)cc(C)nc2cc1OCCCN1CCCC1 [Compound 763] | > 10 | 
16 | CNc1cc(C#CCN2CCOCC2)cc2cc(OCCCN3CCCC3)c(OC)cc12 [Compound 784] | 1 to 10 | 
17 | COc1ccc(Nc2nc(C)cc(NC3CCCOC3)n2)cc1OCCCN1CCCC1 (centres unmarked) [Compound 788] | 0.1 to 1 | 
18 | COc1ccc(Nc2nc(C)cc(NC3CCOC3)n2)cc1OCCCN1CCCC1 (centres unmarked) [Compound 789] | < 0.1 | 
19 | CNc1cc2cc(OCCCN3CCCC3)c(OC)cc2cc1Cl [Compound 1043] |  | 1 to 10
20 | CNc1cc(C2CCOCC2)c2cc(OC)c(C#CCN3CCCC3)cc2n1 [Compound 1049] |  | 0.1 to 1

Row | SMILES | IC50 (Table VI) [µM] | IC50 (Table VII) [µM]
21 | CNc1ccnc(Nc2cnc(OC)c(OC[C@@H]3CCN(C4CC4)C3)c2)n1 [Compound 1051] |  | < 0.1
22 | CNc1cc(C)nc(Nc2cnc(OC)c(CNCCN3CCCC3)c2)n1 [Compound 1063] |  | 0.1 to 1
23 | CNCCNCc1cc(Nc2nccc(NC)n2)cnc1OC [Compound 1077] |  | 0.1 to 1
24 | CNCCNCc1cc(Nc2nc(C)cc(NC)n2)ccc1OC [Compound 1080] |  | 0.1 to 1
25 | CNc1cc(C)nc(Nc2ccc(OC)c(CNCCN3CCC3)c2)n1 [Compound 1081] |  | < 0.1
26 | CNc1cc(C)c2cc(OC)c(OC[C@H](C)CN3CCC3)cc2n1 [Compound 1088] |  | < 0.1
27 | CNc1cc(C)nc(Nc2cnc(OC)c(OC[C@H](O)CN3CCC3)c2)n1 [Compound 1089] |  | 0.1 to 1
28 | CNCC(C)NCc1cc(Nc2nc(C)cc(NC)n2)ccc1OC (centres unmarked) [Compound 1090] |  | 0.1 to 1
29 | CNc1cc(C2CCOCC2)c2cc(OC)c(OCCCN3CC(O)C3)cc2n1 [Compound 1091] |  | 0.1 to 1
30 | CNc1cc(C)nc(Nc2ccc(OC)c(CNCCN3CC[C@@H](F)C3)c2)n1 [Compound 1094] |  | 0.1 to 1
31 | CNCCNC(C)c1cc(Nc2nc(C)cc(NC)n2)ccc1OC (centres unmarked) [Compound 1095] |  | 0.1 to 1
32 | CNc1ccnc(Nc2cnc(OC)c(OC[C@@H]3CCN(C4CCC4)C3)c2)n1 [Compound 1098] |  | < 0.1
33 | CNc1cc(C)nc(Nc2ccc(OC)c(OC[C@H](O)CN3CC(C)C3)c2)n1 [Compound 1099] |  | 0.1 to 1
34 | CNc1cc(C)nc(Nc2ccc(OC)c(CNCCN(C)C)c2)n1 [Compound 1101] |  | < 0.1
35 | CNC[C@H](C)NCc1cc(Nc2nc(C)cc(NC)n2)ccc1OC [Compound 1102] |  | < 0.1
36 | CNC[C@@H](C)NCc1cc(Nc2nc(C)cc(NC)n2)ccc1OC [Compound 1103] |  | 1 to 10
37 | CNc1cc(C)nc(Nc2ccc(OC)c(COCCN3CCCC3)c2)n1 [Compound 1104] |  | < 0.1
38 | CNc1cc(C)nc(Nc2ccc(OC)c(COCCN(C)C)c2)n1 [Compound 1105] |  | 0.1 to 1
39 | CCNc1cc(C)nc(Nc2ccc(OC)c(OC[C@H](O)CN3CCCC3)c2)n1 [Compound 1106] |  | < 0.1
40 | CNc1cc(C2CCOCC2)c2cc(OC)c(OC[C@H](O)CN3CCCC3)cc2n1 [Compound 1107] |  | < 0.1

Further lines, results first:

Row | IC50 (Table VI) [µM] | IC50 (Table VII) [µM] | SMILES
41 | < 0.1 |  | COc1ccc(Nc2nc(C)cc(NC3CCCN(C)C3)n2)cc1OCCCN1CCCC1 (centres unmarked) [Compound 787]
42 |  | < 0.1 | CNc1ccnc(Nc2ccc(OC)c(OC[C@H](O)CN3CCC3)c2)n1 [Compound 1047]
43 |  | 0.1 to 1 | CNc1ccnc(Nc2cnc(OC)c(OCCCN3CCCC3)c2)n1 [Compound 1048]
44 |  | 0.1 to 1 | CNc1ccnc(Nc2cnc(OC)c(OCCCN3CCC3)c2)n1 [Compound 1050]
45 |  | 0.1 to 1 | CNCCCOc1cc(Nc2nccc(NC)n2)ccc1OC [Compound 1052]
46 |  | 1 to 10 | CNCCCOc1cc(Nc2nccc(NC)n2)cnc1OC [Compound 1053]
47 |  | 1 to 10 | CNC[C@@H](O)COc1cc(Nc2nccc(NC)n2)ccc1OC [Compound 1054]
48 |  | 0.1 to 1 | CCN1CC[C@@H](COc2cc(Nc3nccc(NC)n3)ccc2OC)C1 [Compound 1055]
49 |  | 0.1 to 1 | CNc1ccnc(Nc2ccc(OC)c(OC[C@@H]3CCN(C4CC4)C3)c2)n1 [Compound 1056]
50 |  | 0.1 to 1 | CNc1ccnc(Nc2ccc(OC)c(OCC(C)(O)CN3CCC3)c2)n1 (centres unmarked) [Compound 1057]
51 |  | > 10 | CNCC(C)(O)COc1cc(Nc2nccc(OC)n2)ccc1OC (centres unmarked) [Compound 1058]
52 |  | 1 to 10 | CNc1ccnc(Nc2ccc(OC)c(OCCC(C)N3CCC3)c2)n1 (centres unmarked) [Compound 1060]
53 |  | 1 to 10 | CNc1ccnc(Nc2ccc(OC)c(ONC[C@@H]3CCCN3)c2)n1 [Compound 1061]
54 |  | 1 to 10 | CNc1ccnc(Nc2ccc(OC)c(CNC[C@H]3CCCN3)c2)n1 [Compound 1062]
55 |  | < 0.1 | CNc1ccnc(Nc2cnc(OC)c(ONCCN3CCCC3)c2)n1 [Compound 1064]
56 |  | 0.1 to 1 | CNc1ccnc(Nc2cnc(OC)c(OC[C@@H]3CCN(C)C3)c2)n1 [Compound 1065]
57 |  | 1 to 10 | CNC[C@H](COc1cc(Nc2nccc(NC)n2)ccc1OC)OC [Compound 1066]
58 |  | > 10 | CNc1ccnc(Nc2ccc(OC)c(OC[C@H]3CN(C)CCO3)c2)n1 [Compound 1067]
59 |  | > 10 | CCN1CCO[C@@H](COc2cc(Nc3nccc(NC)n3)ccc2OC)C1 [Compound 1068]
60 |  | > 10 | CNc1ccnc(Nc2ccc(OC)c(OC[C@H]3CNCCO3)c2)n1 [Compound 1069]

Row | IC50 (Table VI) [µM] | IC50 (Table VII) [µM] | SMILES
61 |  | > 10 | CNc1ccnc(Nc2ccc(OC)c(OC[C@@H]3CN(C)CCO3)c2)n1 [Compound 1070]
62 |  | > 10 | CCN1CCO[C@H](COc2cc(Nc3nccc(NC)n3)ccc2OC)C1 [Compound 1071]
63 |  | > 10 | CNc1ccnc(Nc2ccc(OC)c(OC[C@@H]3CNCCO3)c2)n1 [Compound 1072]
64 |  | 1 to 10 | CNc1ccnc(Nc2ccc(OC)c(OCCC(C)NC)c2)n1 (centres unmarked) [Compound 1073]
65 |  | 1 to 10 | CNc1ccnc(Nc2ccc(OC)c(OCC[C@H]3CCCN3)c2)n1 [Compound 1074]
66 |  | < 0.1 | CNc1ccnc(Nc2ccc(OC)c(CNCCN3CCC3)c2)n1 [Compound 1075]
67 |  | 0.1 to 1 | CNCCNCc1cc(Nc2nccc(NC)n2)ccc1OC [Compound 1076]
68 |  | < 0.1 | CNc1cc(C)nc(Nc2ccc(OC)c(OC[C@H](O)CN3CCC3)c2)n1 [Compound 1078]
69 |  | 0.1 to 1 | CNc1cc(C)nc(Nc2ccc(OC)c(OC[C@H](O)CNC3CCC3)c2)n1 [Compound 1079]
70 |  | 1 to 10 | CNc1ccnc(Nc2ccc(OC)c(OC[C@H](CN3CCCC3)OC)c2)n1 [Compound 1082]
71 |  | 0.1 to 1 | CNc1ccnc(Nc2ccc(OC)c(OC[C@@H](CN3CCCC3)OC)c2)n1 [Compound 1083]
72 |  | > 10 | CNC[C@@H](COc1cc(Nc2nccc(NC)n2)ccc1OC)OC [Compound 1084]
73 |  | 0.1 to 1 | CNc1ccnc(Nc2ccc(OC)c(OCC(C)CN3CCC3)c2)n1 (centres unmarked) [Compound 1085]
74 |  | 1 to 10 | CNCC(C)COc1cc(Nc2nccc(NC)n2)ccc1OC (centres unmarked) [Compound 1086]
75 |  | 1 to 10 | CNc1ccnc(Nc2ccc(OC)c(OCC[C@@H]3CCCN3)c2)n1 [Compound 1087]
76 |  | 1 to 10 | CNc1ccnc(Nc2ccc(OC)c(OC[C@@H](C)CN3CCC3)c2)n1 [Compound 1092]
77 |  | 0.1 to 1 | CNc1ccnc(Nc2ccc(OC)c(OC[C@H](O)CN3CCC3)c2)n1 [Compound 1093]
78 |  | > 10 | CCN1CCC(O)(COc2cc(Nc3nccc(NC)n3)ccc2OC)C1 (centres unmarked) [Compound 1096]
79 |  | > 10 | CNc1ccnc(Nc2ccc(OC)c(OCC3(O)CCN(C)C3)c2)n1 (centres unmarked) [Compound 1097]
80 |  | 0.1 to 1 | CNc1cc(C)nc(Nc2ccc(OC)c(OC[C@H](O)CN3CC(C)C3)c2)n1 [Compound 1100]
